The source of these data is patent US20220259234A1, “COT MODULATORS AND METHODS OF USE THEREOF” (Gilead Sciences, Inc., priority 2019, published 2022).

The term solubility denotes the dissolved amount per volume that the medium holds.

Converted amounts (≈) assume the structure as drawn. Like-named read-outs stand apart in the source and are kept apart here. Bounds are passed on as bounds.

Data set [1] can be described thus: In vivo dog pharmacokinetics. Conditions: beagle dogs; for AUC0-72 h of the named analyte in plasma: label = analyte measured.
The nature of data set [2]: Solubility in FaSSIF and FeSSIF. Conditions: thermodynamic from solid. The format is physicochemical. The procedure: Solubility was determined at ambient temperature in buffered fasted-state simulated intestinal fluid (FaSSIF, pH 6.5) and buffered fed-state simulated intestinal fluid (FeSSIF, pH 5.0) prepared in-house using BioRelevant Simulated Intestinal Fluid (SIF) powder. Solids were added to FaSSIF or FeSSIF in 1.5-mL Eppendorf tubes, sonicated for 1 minute, then agitated for 2.5 hours in an Eppendorf ThermoMixer C. To determine concentration in solution, the suspensions were centrifuged for 10 min at 14,800 rpm and supernatants were diluted to a volume of 1 mL with 1:1 v/v acetonitrile:water. All diluted supernatants were analyzed by UPLC using a Waters Acquity UPLC with a PDA UV detector.

A short description of the next data set: Human plasma stability. The format is in vitro ADME. Conditions: substrate 2 μM, read-out: Human Plasma T½. The procedure:
(§1) Plasma stability assays were performed in human and dog. Duplicate sets were performed with a tecan liquid handler or with cluster tubes in a heat block. Generally, a substrate concentration of 2 μM was used. Plasma in sodium EDTA was provided by BioIVT as whole plasma with K2 EDA as anti-coagulent.

The nature of the next data set: Dog plasma stability. The conditions noted are these: substrate 2 μM, read-out: Dog Plasma T½. The format is in vitro ADME. The procedure:
as §1

[3] abbreviates: oral powder in capsule, dosed Compound B 9.7 mg-eq/kg.
The mark [4] stands for this setting: fasted-state simulated intestinal fluid (FaSSIF), fassif, fasted-state simulated intestinal fluid pH 6.5, ambient temperature, read-out: FaSSIF (pH 6.5) solubility.
The mark [5] stands for this setting: fed-state simulated intestinal fluid (FeSSIF), fessif, fed-state simulated intestinal fluid pH 5.0, ambient temperature, read-out: FeSSIF (pH 5.0) solubility.

Procedure for Dog GI S9 stability: (§2) GI S9 stability assays were performed. Generally, a substrate concentration of 2 μM was used, a protein concentration of 1.0 mg/mL intestinal S9 was used, and a reaction buffer of 1× phosphate buffered saline (PBS) was used. Intestinal S9 was provided by BioIVT (dog) or Xenotech (human). […] Plates were vortexed, and then centrifuged at 3000×G for 30 minutes. 150 μL of supernatant was transferred to new plates and 150 μL water was added. New plates were vortexed to mix.
(§3) Samples were analyzed with a Leap HTC Autosampler and a Dionex UltiMate 3000 HPLC system interfaced to a Thermo Q-Exactive mass spectrometer operation in positive ion electrospray mode. A Thermo Scientific Hypersil GOLD (1.9 μM particle size, 50×2.1 mm) HPLC column was used and mobile phase was pumped at 0.5 mL/min. Elution of analytes was achieved by a series of linear gradients of acetonitrile in water containing 0.1% (v/v) formic acid. Quantification was by analyte/internal standard peak area ratio (PAR).
Procedure for Human GI S9 stability: as §2, §3

For the molecule `Cn1ccc2c([C@@H](c3cn(C45CC(C4)C5)nn3)N(C(=O)OCOP(=O)(O)O)c3cc(Cl)c4ncc(C#N)c(NCC(C)(C)C)c4c3)cccc2c1=O` [Compound B], in data set [1] (setting [3]), the “AUC0-72 h of the named analyte in plasma” value was “BLQ”.
As for `Cn1ccc2c([C@@H](c3cn(C45CC(C4)C5)nn3)N(C(=O)OCCCOP(=O)(O)O)c3cc(Cl)c4ncc(C#N)c(NCC(C)(C)C)c4c3)cccc2c1=O` [Compound C], the “AUC0-72 h of the named analyte in plasma” value in data set [1] (oral 3 mg/mL solution, dosed Compound C 3 mg-eq/kg) is “BLQ”. Also, in data set [1] (oral solution of Compound C, plasma over 72 hour), the “in vivo conversion of dosed compound” value was “converted in vivo to both Compound D and Compound A in measurable amounts”.
`Cn1ccc2c([C@@H](c3cn(C45CC(C4)C5)nn3)N(C(=O)OCOP(=O)(O)O)c3cc(Cl)c4ncc(C#N)c(NCC(C)(C)C)c4c3)cccc2c1=O` [Example 1, (Phosphonooxy)methyl (S)-((1-(bicyclo[1.1.1]pentan-1-yl)-1H-1,2,3-triazol-4-yl)(2-methyl-1-oxo-1,2-dihydroisoquinolin-5-yl)methyl)(8-chloro-3-cyano-4-(neopentylamino)quinolin-6-yl)carbamate]: the solubility at 2.5 h in data set [2] (setting [4]) is > 1580 µg/mL; in data set [2] (setting [5]) it was > 2170 µg/mL. Besides, the half-life at 2 μM in the data set “Human plasma stability” came out at 369 min; in the data set “Dog plasma stability”, 278 min; in “Dog GI S9 stability” (intestinal S9) it was 26 min; in “Human GI S9 stability” (intestinal S9) it was 43 min.
On to `C[C@H](N)C(=O)OCOC(=O)N(c1cc(Cl)c2ncc(C#N)c(NCC(C)(C)C)c2c1)[C@H](c1cn(C23CC(C2)C3)nn1)c1cccc2c(=O)n(C)ccc12` [Example 2, ((((S)-(1-(bicyclo[1.1.1]pentan-1-yl)-1H-1,2,3-triazol-4-yl)(2-methyl-1-oxo-1,2-dihydroisoquinolin-5-yl)methyl)(8-chloro-3-cyano-4-(neopentylamino)quinolin-6-yl)carbamoyl)oxy)methyl L-alaninate], for which the figures for the solubility at 2.5 h in data set [2] (setting [4]) and in data set [2] (setting [5]) were > 1880 µg/mL and > 1910 µg/mL, respectively. Besides, the half-life at 2 μM is 14 min in “Human plasma stability”, 3 min in “Dog plasma stability”, 1 min in the data set “Dog GI S9 stability” (intestinal S9) and < 1 min in the data set “Human GI S9 stability” (intestinal S9).
As for `Cn1ccc2c([C@@H](c3cn(C45CC(C4)C5)nn3)N(C(=O)OCCCOP(=O)(O)O)c3cc(Cl)c4ncc(C#N)c(NCC(C)(C)C)c4c3)cccc2c1=O` [Example 4, 3-(Phosphonooxy)propyl (S)-((1-(bicyclo[1.1.1]pentan-1-yl)-1H-1,2,3-triazol-4-yl)(2-methyl-1-oxo-1,2-dihydroisoquinolin-5-yl)methyl)(8-chloro-3-cyano-4-(neopentylamino)quinolin-6-yl)carbamate], the solubility at 2.5 h in data set [2] (setting [4]) was 4 µg/mL (≈ 5.16 µM); in data set [2] (setting [5]), 210 µg/mL (≈ 271 µM). Further, the figures for the half-life at 2 μM in “Dog GI S9 stability” (s9) and in the data set “Human GI S9 stability” (s9) were 12 min and 21 min, respectively.
As for `Cc1nc(F)ccc1[C@@H](c1cn(C23CC(C2)C3)nn1)N(C(=O)OCOP(=O)(O)O)c1cc(C#N)c2ncc(C#N)c(NCC(C)(C)C)c2c1` [Example 6, (Phosphonooxy)methyl (S)-((1-(bicyclo[1.1.1]pentan-1-yl)-1H-1,2,3-triazol-4-yl)(6-fluoro-2-methylpyridin-3-yl)methyl)(3,8-dicyano-4-(neopentylamino)quinolin-6-yl)carbamate], the half-life at 2 μM came to 14 min in “Dog GI S9 stability” (s9) and 25 min in the data set “Human GI S9 stability” (s9).
In the case of `CC(=O)OCOC(=O)N(c1cc(C#N)c2ncc(C#N)c(NCC(C)(C)C)c2c1)[C@H](c1cn(C23CC(C2)C3)nn1)c1ccc(F)nc1C` [Example 7, (S)-((((1-(bicyclo[1.1.1]pentan-1-yl)-1H-1,2,3-triazol-4-yl)(6-fluoro-2-methylpyridin-3-yl)methyl)(3,8-dicyano-4-(neopentylamino)quinolin-6-yl)carbamoyl)oxy)methyl acetate], the solubility at 2.5 h in data set [2] (setting [4]) is 12 µg/mL; in data set [2] (setting [5]), 42 µg/mL. In the data set “Human GI S9 stability” (intestinal S9), this molecule returned a half-life at 2 μM of 3 min.
Regarding `Cc1nc(F)ccc1[C@@H](c1cn(C23CC(C2)C3)nn1)N(C(=O)OCOC(=O)C1CCN(C)CC1)c1cc(C#N)c2ncc(C#N)c(NCC(C)(C)C)c2c1` [Example 8, (S)-((((1-(bicyclo[1.1.1]pentan-1-yl)-1H-1,2,3-triazol-4-yl)(6-fluoro-2-methylpyridin-3-yl)methyl)(3,8-dicyano-4-(neopentylamino)quinolin-6-yl)carbamoyl)oxy)methyl 1-methylpiperidine-4-carboxylate], the solubility at 2.5 h is 77 µg/mL (≈ 105 µM) in data set [2] (setting [4]) and 450 µg/mL (≈ 612 µM) in data set [2] (setting [5]). Moreover, the half-life at 2 μM in the data set “Human plasma stability” came to 237 min; in the data set “Human GI S9 stability” (intestinal S9) it was 165 min.
Taken in the same sequence, the figures for `COC[C@@H](C)OC(=O)N(c1cc(C#N)c2ncc(C#N)c(NCC(C)(C)C)c2c1)[C@H](c1cn(C23CC(C2)C3)nn1)c1ccc(F)nc1C` [Example 9, (R)-1-methoxypropan-2-yl ((S)-(1-(bicyclo[1.1.1]pentan-1-yl)-1H-1,2,3-triazol-4-yl)(6-fluoro-2-methylpyridin-3-yl)methyl)(3,8-dicyano-4-(neopentylamino)quinolin-6-yl)carbamate] were 12 µg/mL (≈ 18.4 µM), 52 µg/mL (≈ 79.8 µM), 1580 min and 789 min.
Take `Cc1nc(F)ccc1[C@@H](c1cn(C23CC(C2)C3)nn1)N(C(=O)OCOP(=O)(O)O)c1cc(C#N)c2ncc(C#N)c(N[C@H](C)C(C)(C)C)c2c1` [Example 10, (Phosphonooxy)methyl ((S)-(1-(bicyclo[1.1.1]pentan-1-yl)-1H-1,2,3-triazol-4-yl)(6-fluoro-2-methylpyridin-3-yl)methyl)(3,8-dicyano-4-(((R)-3,3-dimethylbutan-2-yl)amino)quinolin-6-yl)carbamate]: the half-life at 2 μM is 20 min in “Dog GI S9 stability” (s9) and 26 min in “Human GI S9 stability” (s9).
As to `COC[C@@H](C)OC(=O)N(c1cc(C#N)c2ncc(C#N)c(N[C@H](C)C(C)(C)C)c2c1)[C@H](c1cn(C23CC(C2)C3)nn1)c1ccc(F)nc1C` [Example 12, (R)-1-methoxypropan-2-yl ((S)-(1-(bicyclo[1.1.1]pentan-1-yl)-1H-1,2,3-triazol-4-yl)(6-fluoro-2-methylpyridin-3-yl)methyl)(3,8-dicyano-4-(((R)-3,3-dimethylbutan-2-yl)amino)quinolin-6-yl)carbamate], the half-life at 2 μM in the data set “Dog GI S9 stability” (intestinal S9) was determined as 528 min; in the data set “Human GI S9 stability” (intestinal S9), 477 min.
Taken in the same sequence, the figures for `Cc1nc(F)ccc1[C@@H](c1cn(C23CC(C2)C3)nn1)N(C(=O)C(=O)O)c1cc(C#N)c2ncc(C#N)c(N[C@H](C)C(C)(C)C)c2c1` [Example 13, 2-(((S)-(1-(bicyclo[1.1.1]pentan-1-yl)-1H-1,2,3-triazol-4-yl)(6-fluoro-2-methylpyridin-3-yl)methyl)(3,8-dicyano-4-(((R)-3,3-dimethylbutan-2-yl)amino)quinolin-6-yl)amino)-2-oxoacetic acid] were 789 min and 789 min.
As to `Cn1ccc2c([C@@H](c3cn(C45CC(C4)C5)nn3)N(C(=O)OCO)c3cc(Cl)c4ncc(C#N)c(NCC(C)(C)C)c4c3)cccc2c1=O` [Intermediate A], the “AUC0-72 h of the named analyte in plasma” value in data set [1] (setting [3]) was “BLQ”.
